From PMC3578765 (PLoS Neglected Tropical Diseases, 2013)
Read-outs that look alike come from different tables or passages of the source.

Tests used:
Huh-7.5 = assay: assay validation with reference compounds, percent cell number in DENV2-infected Huh-7.5; conditions: percent cell number normalized against MOCK-infected Huh-7.5, DENV2-infected cells
Description: Acquired images were analyzed using our in-house developed image-mining platform (IM). This platform is designed to do high-content screening and directly access the database of images that were sequentially analyzed with specially designed algorithms developed as a customized plug-in to the IM platform. The results of all the analyses were stored in a centralized database. […] To define the percentage of dengue-infected cells and, conversely the non-infected cells, a modified watershed method was applied. Compared to the original watershed algorithm that uses the morphological gradient image, a weighted gradient image is used for the topographic surface, whose weights are defined as the ridge values computed from the eigen values of the original image. The percentage of non-infected cells, which is also defined as the percent inhibition or percent activity, is derived by using the formula: [1−(A488-positive cells/total cells)]×100%.
In both validation experiments, Huh-7.5 was mixed with DENV1, DENV2, DENV3 or DENV4 at a M.O.I. of 0.5 or VM only for MOCK-infection and dispensed in designated wells using the Thermo Scientific WellMate automated liquid dispenser. For the first validation experiment, the statistical reliability of the dengue HT/HCA was determined by calculating the Z'-factor for the percent infection or percent inhibition. Briefly, the Z'-factor of a defined parameter is calculated using the formula: 1−[(3σp+3σn)/(|μp−μn|)], where the μp, μn, σp and σn are the means (μ) and standard deviations (σ) of the positive (p) and negative (n) controls. For the second validation experiment, the reference compounds were prepared in 2-fold serial dilutions and dispensed in duplicate wells in the 384-well plate, followed by the Huh-7.5 and DENV mixture (M.O.I. 0.5). Percent infection, percent inhibition, and percent cell number were determined using the customized IM platform plug-in. Scatter-plot distribution was generated using TIBCO Spotfire 4.5.0 (TIBCO Software Inc., Somerville, MA). […] The top and bottom values of the reference compounds were unconstrained when the curve fittings of the 10-pt. DRCs were generated.
Similarly, the percent cell number was normalized based on the measured cell number in MOCK-infected (100% cell number) controls according to the formula: % cell number = (Cmeasured/μCMOCK-infect)×100%, where Cmeasured is the measured cell number in the test well and μCMOCK-infect is the average cell number in the MOCK-infected controls. The statistical validity of the dengue high-throughput screening was determined by calculating for the Z'-factor using the 0.5% DMSO-treatment and MOCK-infected Huh-7.5 as negative and positive controls, respectively. In addition, other parameters, including DRC of a reference compound, were used to evaluate the assay performance.

[1] = tested on: BR DEN2 01-01 infection of Huh-7.5; assay: assay validation with reference compounds, 10-pt DRC of percent infection; format: cell-based, Dengue virus
Description: (§1) An immunofluorescence assay (IFA) used to detect dengue infection was optimized for the dengue HT/HCA. Briefly, cells were fixed with 4% (w/v) paraformaldehyde (PFA) for 20 min at room temperature (Rm T). PFA-fixed cells were treated with 0.25% (v/v) Triton-X for 20 min at Rm T. DENV-infected cells were detected by probing with 4G2 mAb prepared in blocking buffer: DPBS containing 5% FBS for 30 min at 37°C, followed by AlexaFluor-conjugated goat anti-mouse IgG (H+L) (Invitrogen Molecular Probes, USA) prepared in blocking buffer for 30 min at 37°C. Cell nuclei counterstained with 5 µg/mL 4′,6-diamidino-2-phenylindole (DAPI, Sigma-Aldrich, USA). Two washing cycles of DPBS was done after each step of the IFA. After the final washing, digital images were acquired using a high-throughput confocal fluorescence imaging system (Evotec Technologies High-Throughput Cell Analyzer Opera, Perkin Elmer, USA). The digital images were taken from 3 different fields of each well at 20× magnification.
(§2) Acquired images were analyzed using our in-house developed image-mining platform (IM). This platform is designed to do high-content screening and directly access the database of images that were sequentially analyzed with specially designed algorithms developed as a customized plug-in to the IM platform. The results of all the analyses were stored in a centralized database. […] One channel (DAPI-channel) captures the signal emitted by DAPI-stained nuclei at 450 nm, while the other channel (A488-channel) captures the signal emitted by the AlexaFluor 488 dye bound to the dengue E protein-antibody complexes confined in the cytoplasm of dengue-infected cells at 540 nm. To define the percentage of dengue-infected cells and, conversely the non-infected cells, a modified watershed method was applied. Compared to the original watershed algorithm that uses the morphological gradient image, a weighted gradient image is used for the topographic surface, whose weights are defined as the ridge values computed from the eigen values of the original image. The percentage of non-infected cells, which is also defined as the percent inhibition or percent activity, is derived by using the formula: [1−(A488-positive cells/total cells)]×100%.
In both validation experiments, Huh-7.5 was mixed with DENV1, DENV2, DENV3 or DENV4 at a M.O.I. of 0.5 or VM only for MOCK-infection and dispensed in designated wells using the Thermo Scientific WellMate automated liquid dispenser. For the first validation experiment, the statistical reliability of the dengue HT/HCA was determined by calculating the Z'-factor for the percent infection or percent inhibition. Briefly, the Z'-factor of a defined parameter is calculated using the formula: 1−[(3σp+3σn)/(|μp−μn|)], where the μp, μn, σp and σn are the means (μ) and standard deviations (σ) of the positive (p) and negative (n) controls. For the second validation experiment, the reference compounds were prepared in 2-fold serial dilutions and dispensed in duplicate wells in the 384-well plate, followed by the Huh-7.5 and DENV mixture (M.O.I. 0.5). Percent infection, percent inhibition, and percent cell number were determined using the customized IM platform plug-in. Scatter-plot distribution was generated using TIBCO Spotfire 4.5.0 (TIBCO Software Inc., Somerville, MA). The ten-point dose-response curves (10-pt DRCs) were plotted using the non-linear regression formula: log (inhibitor) vs. response – variable slope (4 parameters), available in GraphPad Prism 5.04 (GraphPad Software Inc., San Diego, CA). The top and bottom values of the reference compounds were unconstrained when the curve fittings of the 10-pt. DRCs were generated.

[2] = tested on: DENV2 (BR DEN2 01-01) infection in Huh-7.5; assay: image-based dengue HT/HCA, 10-pt dose-response hit confirmation, DENV2; format: cell-based; conditions: Dengue virus, read-out: EC50 DENV2
Description: as §1, §2
(§3) The BioFocus kinase inhibitor library were screened against DENV1, DEN2, DENV3 and DENV4 at 10 µM in 0.5% (v/v) DMSO. MOCK-infected Huh-7.5 and IFN-α2A (500 U/mL) were used as positive controls, and the 0.5% DMSO vehicle was used as negative control. Four sets of 15 384-well plates (13 plates designated for test compounds and 2 plates designated for DMSO vehicle control) were used for the primary screening of the BioFocus kinase inhibitor library against each dengue serotype. Each of the 4,000 compounds in the library was tested in single wells. For data normalization and quality control of the screening, each test compound plate contained 16 replicates of the positive and negative controls. After dispensing the test compounds IFN-α2A and DMSO vehicle in the 384-well plates, Huh-7.5 was mixed with DENV1, DENV2, DENV3, or DENV4 to achieve a M.O.I. of 0.5 and dispensed at 5×10^3 cells/well using the Thermo Scientific WellMate automated liquid dispenser. For the MOCK-infected Huh-7.5, the cells were mixed with VM and dispensed under the same conditions as previously stated. Virus infection in the presence of the compounds proceeded at 37°C, 5% CO2 for 96 hrs. Compound activity based on percent inhibition and cell toxicity was assessed by IFA and IM analysis as described above. Scatter-plot distribution of the entire screening was generated using TIBCO Spotfire 4.5.0 (TIBCO Software Inc., Somerville, MA).
(§4) The calculated activity was normalized to a percent inhibition (PI) based on the MOCK-infected cells (100% activity, or zero infection) and dengue-infected cells (0% activity, or maximum measured infection percentage) controls according to the formula: [drawing 1] where: PImeasured - percent inhibition of test compound […]

[3] = compound toxicity, resazurin reduction assay in uninfected Huh-7.5; format: cell-based; conditions: human, uninfected Huh-7.5 cells, Huh-7.5 without viral infection, 10-pt DRC
Description: The hits identified from the primary screening were also tested at 10 µM against CHIKV-118-GFP infection in HuH-7 cells and evaluated by resazurin reduction assay (RRA). Resazurin (7-Hydroxy-3H-phenoxazin-3-one 10-oxide) is reduced to the red fluorescent resorufin by redox enzymes produced by viable cells, and is a good indication of metabolic capacity, and by extension cell viability. The amount of converted resorufin was measured as relative fluorescence readout (RFU) at excitation/emission of 531/572 nm using a fluorescence spectrophotometer (Victor^3 V Spectrophotometer, Perkin Elmer, USA). Briefly, cells were inoculated with CHIKV-118-GFP at an M.O.I. of 0.5 and seeded in 384-well plates containing reference and primary hit compounds and incubated under humidified conditions for 72 hrs at 37°C. Resazurin solution was added to a final concentration of 10 µM and further incubated for another 12 hrs prior to measurement of RFU. The percent activity of the compounds, reflected by the percent cell viability, was quantified by normalizing against the RFUs of MOCK-infected cells and CHIKV-118-GFP-infected cells. Compounds resulting in normalized RFU ≥70% were considered as positive hits for anti-CHIKV activity.
To confirm the compound activity against dengue viruses, the selected hits from the primary screening were tested in a 10-pt. DRC (2-fold serial dilution from 50 µM) using the same assay described for the dengue HT/HCA. Each concentration of the hit compounds was tested in duplicate wells. Data generated from image analysis of the 10-pt. DRC was plotted and analyzed using the non-linear regression formula: log (inhibitor) vs. response – […] (4 parameters) in GraphPad Prism 5.04. […] Compound toxicity was determined by testing the hit compounds in a 10-pt. DRC against Huh-7.5 in the absence of viral infection and measuring the cell viability using resazurin reduction assay as described above. […] Confirmed hits were selected based on their Selectivity Index (SI), a dimensionless value that indicates the magnitude between cytotoxic concentration and effective concentration, and is calculated as: SI = CC50/EC50.

[4] = tested on: DENV3 (BR DEN3 290-02) infection in Huh-7.5; assay: image-based dengue HT/HCA, 10-pt dose-response hit confirmation, DENV3; format: cell-based; conditions: Dengue virus, read-out: EC50 DENV3
Description: as §1, §2, §3, §4

[5] = tested on: DENV4 (DEN4 TVP-360) infection in Huh-7.5; assay: image-based dengue HT/HCA, 10-pt dose-response hit confirmation, DENV4; format: cell-based; conditions: Dengue virus, read-out: EC50 DENV4
Description: as §1, §2, §3, §4

[6] = tested on: DENV1 (Den1 BR/90) infection in Huh-7.5; assay: image-based dengue HT/HCA, 10-pt dose-response hit confirmation, DENV1; format: cell-based; conditions: Dengue virus, read-out: EC50 DENV1
Description: as §1, §2, §3, §4

[7] = percent infection normalized against DENV2-infected Huh-7.5, M.O.I. 0.5, read-out: IC50
[8] = DENV2, Huh7.5, Huh-7.5, M.O.I. 0.5, 96 hrs
[9] = DENV3, Huh7.5, Huh-7.5, M.O.I. 0.5, 96 hrs
[10] = DENV4, Huh7.5, Huh-7.5, M.O.I. 0.5, 96 hrs
[11] = DENV1, Huh7.5, Huh-7.5, M.O.I. 0.5, 96 hrs

| SMILES | CC50 (Huh-7.5) [µM] | IC50 [1, 7] [µM] | EC50 [2, 8] [µM] | CC50 at 72 h [3] [µM] | EC50 [4, 9] [µM] | EC50 [5, 10] [µM] | EC50 [6, 11] [µM] | other results |
| --- | --- | --- | --- | --- | --- | --- | --- | --- |
| C=CCNC(=O)c1cc([N+](=O)[O-])cc2c(=O)[nH]c(Nc3ccc(Cl)c(Cl)c3)nc12 [AZ 10417808] | 148 | 82.3 |  |  |  |  |  |  |
| CCN(CC)CC1CCN(c2ncc3ncnc(Nc4ccc(F)c(Cl)c4)c3n2)CC1 [BIBU 1361] | 4.5 | 4.34 |  |  |  |  |  |  |
| NC(Cc1ccc(Cl)cc1)c1csc(Nc2ccc(S(N)(=O)=O)cc2)n1 (stereo not shown) [CND0968] |  |  | 6.4 | 29 | 6.2 | 1.1 | > 25 |  |
| CCCc1cnc(Nc2nc(C(N)Cc3ccccc3)cs2)nc1 (stereo not shown) [CND0975] |  |  | 5.5 | 44 | > 50 | > 50 | 1 |  |
| COc1ccc(CC(N)c2csc(Nc3nccc(NCc4ccco4)n3)n2)cc1 (stereo not shown) [CND1020] |  |  |  | 25 |  |  | 3.9 | EC50 ([2]; DENV2, Huh7.5, 96 h): 13 µM; EC50 ([4]; DENV3, Huh7.5, 96 h): 3.4 µM; EC50 ([5]; DENV4, Huh7.5, 96 h): 19 µM |
| NC(Cc1ccccc1)c1csc(Nc2ccccn2)n1 (stereo not shown) [CND1043] |  |  | 3.1 | 43 | 5.7 | 6.9 |  | EC50 ([6]; Huh7.5, 96 h): 4.1 µM |
| COc1cccc(Nc2nc(C(N)CC(C)C)cs2)n1 (stereo not shown) [CND1057] |  |  | 1 | 23 | 2.9 | 10 | 3.3 |  |
| NC(Cc1ccc(C(F)(F)F)cc1)c1csc(Nc2ncccn2)n1 (stereo not shown) [CND1081] |  |  | 2.1 | > 100 | 3.1 | 12 | 1.5 |  |
| NC(Cc1ccc(C(F)(F)F)cc1)c1csc(Nc2nccc(NCCCO)n2)n1 (stereo not shown) [CND1172] |  |  | 10.4 | 15 | 4.8 | 7.5 | 7.3 |  |
| CS(=O)(=O)c1cnc(Nc2nc(C(N)Cc3ccc(Cl)cc3)cs2)nc1 (stereo not shown) [CND1244] |  |  | 2.9 | 21 | 1.6 | 4.4 | 1.7 |  |
| CCN(CC)CCCC(C)Nc1ccnc2cc(Cl)ccc12 (stereo not shown) [Chloroquine] |  |  |  |  |  |  |  | IC50 ([1]; Dengue virus, DENV2, Huh7.5): 17.4 µM |
| CN1c2cc3c(cc2N=C(c2ccc(C(=O)O)cc2)c2ccccc21)C(C)(C)CCC3(C)C [LE 135] | 23.9 | 11.7 |  |  |  |  |  |  |
| Cc1c(-c2ccc(O)cc2)nn(-c2ccc(O)cc2)c1-c1ccc(OCCN2CCCCC2)cc1 [MPP] | 5.86 | 6.85 |  |  |  |  |  |  |
